Measurements as given in patent US9309242B2, “Substituted pyrido[2,3-b]pyrazines as FGFR kinase inhibitors” (priority 2011, dated 2016).

Legend:
FGFR2 (h) = FGFR2 (h) (Homo sapiens, UniProt P21802); experiment: FGFR2 (enzymatic assay), TR-FRET; format: biochemical; settings: enzymatic assay; read-out: FGFR 2 pIC50 (converted)
Procedure, shortened: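 At low ATP (0.4 μM), enzyme activity of human FGFR2 (150 ng/ml) toward biotinylated Flt3 substrate (500 nM) was followed with test compound present. Reactions ran in 50 mM HEPES pH 7.5, 6 mM MnCl2, 1 mM DTT, 0.1 mM Na3VO4, 0.01% Triton-X-100, 1% DMSO.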

[1] = test system: Ba/F3-KDR-transfected cells; experiment: Ba/F3-KDR (plus IL3) cellular proliferation assay, counterscreen with 10 ng/ml murine IL3; format: cell-based; settings: plus IL3 (10 ng/ml murine IL3, counterscreen); read-out: BAF3-KDR (PLUS IL3) pIC50 (converted)
Procedure, shortened: (§1)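 Compound in DMSO was dispensed first, then transfected cells in serum-containing RPMI-1640 were added. After a 24 h incubation, viability was gauged by resazurin reduction over 4 h, measured as fluorescence.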

FGFR3 (h) = FGFR3 (h) (Homo sapiens, UniProt P22607); experiment: FGFR3 (enzymatic assay), TR-FRET; format: biochemical; settings: read-out: FGFR 3 pIC50 (converted)
Sequence of FGFR3 (h) (P22607 23-806): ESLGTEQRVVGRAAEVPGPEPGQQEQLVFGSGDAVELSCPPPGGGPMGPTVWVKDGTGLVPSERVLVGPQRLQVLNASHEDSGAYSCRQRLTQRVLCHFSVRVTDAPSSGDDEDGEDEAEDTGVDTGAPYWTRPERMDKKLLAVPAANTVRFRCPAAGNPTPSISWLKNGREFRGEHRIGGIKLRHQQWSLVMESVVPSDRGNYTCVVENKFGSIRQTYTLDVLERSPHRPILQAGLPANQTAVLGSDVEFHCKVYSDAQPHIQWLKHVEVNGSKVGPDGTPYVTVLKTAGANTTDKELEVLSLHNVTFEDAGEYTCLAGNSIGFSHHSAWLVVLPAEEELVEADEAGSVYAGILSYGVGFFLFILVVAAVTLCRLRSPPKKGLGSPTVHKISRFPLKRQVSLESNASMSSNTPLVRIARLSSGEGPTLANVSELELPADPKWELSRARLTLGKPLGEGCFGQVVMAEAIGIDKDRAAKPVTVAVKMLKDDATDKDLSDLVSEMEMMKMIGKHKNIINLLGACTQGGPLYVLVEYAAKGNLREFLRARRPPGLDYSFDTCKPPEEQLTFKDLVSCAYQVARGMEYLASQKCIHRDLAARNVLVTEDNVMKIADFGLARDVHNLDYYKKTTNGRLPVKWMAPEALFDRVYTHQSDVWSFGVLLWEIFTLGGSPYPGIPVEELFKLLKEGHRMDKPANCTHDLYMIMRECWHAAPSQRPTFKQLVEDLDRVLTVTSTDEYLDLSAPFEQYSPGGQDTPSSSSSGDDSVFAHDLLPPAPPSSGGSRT
Source text: Time-Resolved Fluorescence Resonance Energy Transfer (TR-FRET) signal (ex340 nm.

FGFR1 (h) = FGFR1 (h) (Homo sapiens, UniProt P11362); experiment: FGFR1 (enzymatic assay), TR-FRET; format: biochemical; settings: read-out: FGFR 1 pIC50 (converted)
[2] = biological target: Ba/F3-FGFR4-transfected cells (Homo sapiens, UniProt P22455); experiment: Ba/F3-FGFR4 cellular proliferation assay, Alamar Blue; format: cell-based
Sequence of Ba/F3-FGFR4-transfected cells (P22455 whole entry, change not shown): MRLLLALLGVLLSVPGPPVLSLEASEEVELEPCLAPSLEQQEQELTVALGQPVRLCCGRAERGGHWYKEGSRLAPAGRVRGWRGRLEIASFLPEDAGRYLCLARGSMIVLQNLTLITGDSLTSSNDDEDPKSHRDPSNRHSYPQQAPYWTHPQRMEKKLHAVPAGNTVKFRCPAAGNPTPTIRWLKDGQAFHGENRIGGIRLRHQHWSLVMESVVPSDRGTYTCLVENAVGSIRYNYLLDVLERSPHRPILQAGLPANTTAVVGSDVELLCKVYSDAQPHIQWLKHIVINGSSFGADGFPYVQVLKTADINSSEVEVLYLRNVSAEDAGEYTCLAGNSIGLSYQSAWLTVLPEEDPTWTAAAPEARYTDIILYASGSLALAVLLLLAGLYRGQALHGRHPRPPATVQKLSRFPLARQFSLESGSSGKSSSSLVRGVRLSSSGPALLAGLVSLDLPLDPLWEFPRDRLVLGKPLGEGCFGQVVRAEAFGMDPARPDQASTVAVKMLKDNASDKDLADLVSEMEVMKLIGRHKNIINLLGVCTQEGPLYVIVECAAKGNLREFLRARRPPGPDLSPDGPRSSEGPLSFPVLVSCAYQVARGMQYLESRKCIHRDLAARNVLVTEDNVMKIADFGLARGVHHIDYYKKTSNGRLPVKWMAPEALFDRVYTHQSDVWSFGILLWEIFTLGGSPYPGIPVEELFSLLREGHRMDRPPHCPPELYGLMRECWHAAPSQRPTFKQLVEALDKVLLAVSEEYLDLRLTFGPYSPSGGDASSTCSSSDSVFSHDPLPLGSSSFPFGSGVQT
Procedure, shortened: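 Step one: compound dilutions in DMSO are sprayed into wells. Step two: transfected Ba/F3-FGFR4 cells are added at 20000 per well and incubated 24 hours at 37° C. Step three: Alamar Blue is added for 4 hours and relative fluorescence is measured.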

[3] = biological target: T1, Ba/F3-KDR-transfected cells (Homo sapiens, UniProt P35968); experiment: Ba/F3-KDR (minus IL3) cellular proliferation assay, Alamar Blue; format: cell-based
T1 construct: BAF3-KDR (MIN IL3) pIC50; other: minus IL3
T1 sequence (P35968 whole entry, change not shown): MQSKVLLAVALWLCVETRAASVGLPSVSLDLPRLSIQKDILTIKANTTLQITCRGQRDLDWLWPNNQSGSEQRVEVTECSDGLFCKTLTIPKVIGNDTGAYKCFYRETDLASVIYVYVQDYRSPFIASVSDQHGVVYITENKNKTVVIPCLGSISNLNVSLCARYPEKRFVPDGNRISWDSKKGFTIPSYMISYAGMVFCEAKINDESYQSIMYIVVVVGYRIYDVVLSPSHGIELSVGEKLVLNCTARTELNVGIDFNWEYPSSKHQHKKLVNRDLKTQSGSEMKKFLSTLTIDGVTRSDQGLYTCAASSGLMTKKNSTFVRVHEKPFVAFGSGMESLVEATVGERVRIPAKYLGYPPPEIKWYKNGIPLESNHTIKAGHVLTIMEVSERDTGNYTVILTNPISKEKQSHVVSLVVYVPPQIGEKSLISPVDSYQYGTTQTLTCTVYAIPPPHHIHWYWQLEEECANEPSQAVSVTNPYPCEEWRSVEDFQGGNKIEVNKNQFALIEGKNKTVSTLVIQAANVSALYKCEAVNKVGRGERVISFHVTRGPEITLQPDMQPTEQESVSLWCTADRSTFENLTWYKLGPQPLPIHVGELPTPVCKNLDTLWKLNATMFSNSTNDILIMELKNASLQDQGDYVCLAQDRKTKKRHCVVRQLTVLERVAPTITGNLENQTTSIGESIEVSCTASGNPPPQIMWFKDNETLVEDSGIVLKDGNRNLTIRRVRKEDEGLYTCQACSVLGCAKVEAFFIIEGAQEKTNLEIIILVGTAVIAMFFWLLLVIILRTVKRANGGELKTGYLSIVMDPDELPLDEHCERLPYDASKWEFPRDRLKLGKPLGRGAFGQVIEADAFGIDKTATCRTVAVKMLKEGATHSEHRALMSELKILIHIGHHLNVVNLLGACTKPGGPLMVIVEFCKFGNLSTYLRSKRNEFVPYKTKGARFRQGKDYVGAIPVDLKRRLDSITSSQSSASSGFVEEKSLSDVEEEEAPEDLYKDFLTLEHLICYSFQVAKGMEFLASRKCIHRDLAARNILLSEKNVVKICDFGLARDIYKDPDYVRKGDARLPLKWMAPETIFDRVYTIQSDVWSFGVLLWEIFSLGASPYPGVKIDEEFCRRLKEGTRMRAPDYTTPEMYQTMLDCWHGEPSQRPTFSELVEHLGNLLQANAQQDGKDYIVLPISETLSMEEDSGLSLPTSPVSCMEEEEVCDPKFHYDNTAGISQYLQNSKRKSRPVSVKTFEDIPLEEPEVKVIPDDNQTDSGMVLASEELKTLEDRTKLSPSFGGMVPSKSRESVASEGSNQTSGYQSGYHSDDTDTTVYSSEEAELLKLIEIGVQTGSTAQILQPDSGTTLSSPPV
Procedure, shortened: as §1

[4] = test system: Ba/F3-FGFR3-transfected cells; experiment: Ba/F3-FGFR3 (plus IL3) cellular proliferation assay, counterscreen with 10 ng/ml murine IL3; format: cell-based; settings: plus IL3 (10 ng/ml murine IL3, counterscreen); read-out: BAF3-FGFR3 (PLUS IL3) pIC50 (converted)
Procedure, shortened: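 FGFR3-Ba/F3, 20000 cells/well, RPMI-1640 + 10% FBS, no phenol red; cpd in DMSO; 24 h, 37° C/5% CO2. Alamar Blue 4 h, RFU ex540/em590. Counterscreen: + murine IL3 10 ng/ml.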

[5] = biological target: T2, Ba/F3-FGFR1-transfected cells (Homo sapiens, UniProt P11362); experiment: Ba/F3-FGFR1 (minus IL3) cellular proliferation assay, Alamar Blue; format: cell-based
T2 construct: BAF3-FGFR1 (MIN IL3) pIC50; other: minus IL3
T2 sequence (P11362 whole entry, change not shown): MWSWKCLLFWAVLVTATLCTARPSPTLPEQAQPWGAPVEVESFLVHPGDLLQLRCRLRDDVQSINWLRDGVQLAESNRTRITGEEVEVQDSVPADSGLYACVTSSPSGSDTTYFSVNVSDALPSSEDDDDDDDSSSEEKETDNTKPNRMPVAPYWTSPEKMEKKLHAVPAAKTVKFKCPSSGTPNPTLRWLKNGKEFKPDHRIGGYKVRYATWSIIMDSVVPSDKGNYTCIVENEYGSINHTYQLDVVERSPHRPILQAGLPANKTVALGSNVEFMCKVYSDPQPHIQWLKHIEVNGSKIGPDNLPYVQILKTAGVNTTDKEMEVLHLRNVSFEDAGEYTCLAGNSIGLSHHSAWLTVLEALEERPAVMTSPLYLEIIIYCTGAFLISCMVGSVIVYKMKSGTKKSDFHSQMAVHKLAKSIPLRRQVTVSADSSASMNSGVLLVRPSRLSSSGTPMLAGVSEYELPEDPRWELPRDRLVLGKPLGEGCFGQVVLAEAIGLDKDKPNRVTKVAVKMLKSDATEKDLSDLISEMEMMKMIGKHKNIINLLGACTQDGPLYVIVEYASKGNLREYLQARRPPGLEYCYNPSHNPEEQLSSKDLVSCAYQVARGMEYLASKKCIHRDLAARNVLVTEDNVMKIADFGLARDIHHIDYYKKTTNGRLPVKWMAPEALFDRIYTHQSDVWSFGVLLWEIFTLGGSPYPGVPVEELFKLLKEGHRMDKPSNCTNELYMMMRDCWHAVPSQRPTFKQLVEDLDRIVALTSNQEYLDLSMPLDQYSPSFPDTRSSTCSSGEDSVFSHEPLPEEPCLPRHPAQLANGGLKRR
Procedure, shortened: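 Ba/F3-FGFR1 cells, 20000/well, RPMI-1640 + 10% FBS + 2 mM L-Gln; compound in DMSO; 24 h, 37 °C, 5% CO2; Alamar Blue 4 h; RFU ex 540/em 590.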

Sequence of FGFR2 (h) (P21802 22-821): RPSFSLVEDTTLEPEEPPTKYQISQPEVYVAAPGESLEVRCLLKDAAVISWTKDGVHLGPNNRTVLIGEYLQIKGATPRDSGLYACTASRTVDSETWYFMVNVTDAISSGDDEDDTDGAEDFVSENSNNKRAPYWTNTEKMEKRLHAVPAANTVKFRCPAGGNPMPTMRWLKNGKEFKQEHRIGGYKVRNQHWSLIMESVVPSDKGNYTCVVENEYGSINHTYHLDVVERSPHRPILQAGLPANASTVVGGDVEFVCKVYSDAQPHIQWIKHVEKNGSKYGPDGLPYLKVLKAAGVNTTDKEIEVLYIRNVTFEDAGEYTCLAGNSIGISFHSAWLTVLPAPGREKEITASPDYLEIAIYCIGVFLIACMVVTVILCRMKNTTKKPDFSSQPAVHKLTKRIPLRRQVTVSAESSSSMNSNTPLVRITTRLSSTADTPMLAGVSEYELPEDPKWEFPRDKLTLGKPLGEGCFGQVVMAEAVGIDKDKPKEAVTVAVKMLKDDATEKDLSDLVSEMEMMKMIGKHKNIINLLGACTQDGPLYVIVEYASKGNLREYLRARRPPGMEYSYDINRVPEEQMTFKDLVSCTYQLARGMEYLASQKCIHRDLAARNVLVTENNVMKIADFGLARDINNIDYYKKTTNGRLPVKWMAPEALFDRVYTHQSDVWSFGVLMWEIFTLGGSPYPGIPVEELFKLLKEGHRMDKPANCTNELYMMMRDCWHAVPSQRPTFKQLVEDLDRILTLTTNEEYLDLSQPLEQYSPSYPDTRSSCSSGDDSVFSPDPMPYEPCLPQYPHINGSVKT

| SMILES | IC50 (FGFR2 (h)) [nM] | IC50 [1] [nM] | IC50 (FGFR3 (h)) [nM] | IC50 (FGFR1 (h)) [nM] | BAF3-FGFR4 pIC50 [2] | BAF3-KDR (MIN IL3) pIC50 [3] | IC50 [4] [nM] | BAF3-FGFR1 (MIN IL3) pIC50 [5] |
| --- | --- | --- | --- | --- | --- | --- | --- | --- |
| COCC(O)Cn1/c(=N/c2cc(OC)cc(OC)c2F)ccc2ncc(-c3cnn(C)c3)nc21 (single isomer, unassigned) [Compound 60] | 1 | > 10000 | 0.525 | 0.741 | 7.76 | 6.58 | > 10000 | 8.43 |
| COc1cc(OC)c(F)c(N(CC(O)COC(C)C)c2ccc3ncc(-c4cnn(CC(O)COC(C)C)c4)nc3n2)c1 (single isomer, unassigned) [Compound 252] | 5.37 | > 10000 | 4.07 | 1.95 | 6.95 | 5.67 | > 10000 | 7.14 |
| COc1cc(OC)c(F)c(N(C)c2ccc3ncc(-c4cnn(C)c4)nc3n2)c1F (single isomer, unassigned) [Compound 254] | 1.05 | > 10000 | 0.437 | 0.468 | 7.15 | 5.98 | > 10000 | 7.67 |
| COc1cc(OC)c(F)c(/N=c2\ccc3ncc(-c4cnn(C)c4)nc3n2C)c1F (single isomer, unassigned) [Compound 255] | 0.776 | > 10000 | 0.363 | 0.214 | 7.34 | 6.22 | > 10000 | 7.93 |
| COc1cc(OC)c(F)c(/N=c2\ccc3ncc(-c4cnn(C)c4)nc3n2CC2CC2)c1F (single isomer, unassigned) [Compound 267] | 4.27 | > 10000 | 2.4 | 0.977 | 7.55 | 6.37 | > 10000 | 7.98 |
| COc1cc(OC)c(F)c(N(CC2CC2)c2ccc3ncc(-c4cnn(C)c4)nc3n2)c1F (single isomer, unassigned) [Compound 268] | 2.82 | > 10000 | 1.86 | 0.912 | 6.90 | 5.55 | > 10000 | 7.44 |
| COc1cc(OC)c(F)c(N(CC(O)c2cnn(C)c2)c2ccc3ncc(-c4cnn(C)c4)nc3n2)c1 (centres unmarked) [Compound 244] | 5.01 | > 10000 | 4.07 | 5.89 | 6.11 | 5.03 | > 10000 | 6.76 |
| COc1cc(OC)c(F)c(N(CC(C)(C)O)c2ccc3ncc(-c4cnn(C)c4)nc3n2)c1 [Compound 245] | 4.47 | > 10000 | 3.31 | 3.63 | 6.34 | 5.33 | > 10000 | 6.86 |
| COc1cc(/N=c2\ccc3ncc(-c4cnn(C)c4)nc3n2CC(C)(C)O)c(F)c(OC)c1 [Compound 246] | 1.51 | > 10000 | 0.794 | 0.603 | 6.71 | 5.83 | > 10000 | 7.25 |
| COc1cc(/N=c2\ccc3ncc(-c4cnn(C)c4)nc3n2CC2CCC(=O)N2CCO)c(F)c(OC)c1 (centres unmarked) [Compound 247] | 2.34 | > 10000 | 1.32 | 0.603 | 6.87 | 5.63 | > 10000 | 7.51 |
| COc1cc(OC)c(F)c(N(CC(=O)NC(C)C)c2ccc3ncc(-c4cnn(C)c4)nc3n2)c1 [Compound 249] | 4.79 | > 10000 | 7.59 | 3.89 | 6.00 | 5.09 | > 10000 | 6.70 |
| COc1cc(OC)cc(N(CC(O)COC(C)C)c2ccc3ncc(-c4cnn(CC(O)COC(C)C)c4)nc3n2)c1 (centres unmarked) [Compound 250] | 6.03 | > 10000 | 4.79 | 4.17 | 6.37 | 5.16 | > 10000 | 6.45 |
| COc1cc(OC)cc(N(Cc2c[nH]nn2)c2ccc3ncc(-c4cnn(C)c4)nc3n2)c1 [Compound 251] | 1.41 | > 10000 | 0.661 | 1.32 | 6.57 | 5.53 | > 10000 | 6.99 |
| COc1cc(OC)c(F)c(N(Cc2ncc[nH]2)c2ccc3ncc(-c4cnn(C5COC5)c4)nc3n2)c1 [Compound 253] | 1.82 | > 10000 | 1.35 | 0.603 | 7.90 | 6.32 | > 10000 | 8.61 |
| CCn1/c(=N/c2c(F)c(OC)cc(OC)c2F)ccc2ncc(-c3cnn(C)c3)nc21 [Compound 257] | 1.35 | > 10000 | 0.692 | 0.331 | 7.98 | 6.80 | > 10000 | 8.58 |
| COc1cc(OC)c(F)c(N(Cc2c[nH]nn2)c2ccc3ncc(-c4cnn(C)c4)nc3n2)c1 [Compound 258] | 1.45 | > 10000 | 0.676 | 0.55 | 7.03 | 6.02 | > 10000 | 7.38 |
| COc1cc(OC)c(F)c(N(Cc2ncc[nH]2)c2ccc3ncc(N4C[C@@H](C)N[C@@H](C)C4)nc3n2)c1 [Compound 259] | 2.88 | > 10000 | 4.57 | 2.09 | 6.19 | 5.13 | > 10000 | 7.33 |
| CNC(=O)c1cc(F)cc(N(Cc2ncc[nH]2)c2ccc3ncc(-c4cnn(C)c4)nc3n2)c1 [Compound 261] | ~2.82 | > 10000 | 1.91 | 1.48 | 6.77 | 6.01 | > 10000 | 7.61 |
| COc1cc(OC)c(F)c(N(CC(=O)N2CCNCC2)c2ccc3ncc(-c4cnn(C)c4)nc3n2)c1 [Compound 262] | 7.24 | > 10000 | 17.4 | 7.24 | 5.63 | 5.06 | > 10000 | 6.51 |
| COc1cc(OC)c(F)c(N(Cc2ncc[nH]2)c2ccc3ncc(-c4cnn(CCS(C)(=O)=O)c4)nc3n2)c1 [Compound 264] | 1.86 | > 10000 | 1.41 | 0.55 | 7.18 | 5.58 | > 10000 | 7.66 |
| COc1cc(OC)c(F)c(N(CCS(C)(=O)=O)c2ccc3ncc(-c4cnn(CCS(C)(=O)=O)c4)nc3n2)c1 [Compound 266] | 2.24 | > 10000 | 1.7 | 1.45 | 5.78 | <5 | > 10000 | 6.29 |
| COc1cc(OC)c(F)c(N(CC2CC(O)C(=O)N2)c2ccc3ncc(-c4cnn(C)c4)nc3n2)c1 (centres unmarked) [Compound 269] | 3.24 | > 10000 | 2.14 | 1.62 | 6.29 | 5.12 | > 10000 | 6.72 |
